Data set [1] has as its system Acinetobacter baumannii 872842. The format is cell-based. Particulars: 872842. In short, it runs like this:
(§1)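 Visible-growth endpoint after 18-20 h at 35° C defines the MIC (μg/mL). Setup: CLSI broth microdilution, MH-II cation-adjusted broth with P-80 at 0.002% final, inoculum of approximately 10^6 CFU/mL, two-fold serial peptide dilutions.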

For data set [2], the system named is Acinetobacter baumannii DSM 30008. Format: cell-based. Particulars: DSM 30008. In a few lines:
as §1

Data set [3] concerns Enterobacter cloacae 848840. The format is cell-based. Conditions: 848840. In a few lines:
as §1

Another data set has as its system Escherichia coli 926415. Format: cell-based. Particulars: 926415. In a few lines:
as §1

In data set [4] the test system is Escherichia coli ATCC 25922. Format: cell-based. Conditions: ATCC 25922. In short, it runs like this:
as §1

In data set [5] the test system is Klebsiella pneumoniae 968733. The format is cell-based. Particulars: 968733. In short, it runs like this:
as §1

Data set [6] deals with Klebsiella pneumoniae SSI #3010. The format is cell-based. Particulars: SSI #3010. In short, it runs like this: as §1
The subject of data set [7] is Pseudomonas aeruginosa ATCC 27853. The format is cell-based. Particulars: ATCC 27853. In short, it runs like this:
as §1

Data set [8] relates to human red blood cells (hRBC). As to the kind of experiment: Hemolysis. Particulars: red cells of human, 1 h, 200. The format is cell-based. In short, it runs like this: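 First, fresh human erythrocytes are washed in PBS; next, they are incubated at 20% (v/v) with compound at 200 μg/mL for 1 h at 37° C. Finally, centrifuged supernatants are diluted and OD540 is taken relative to the Triton X-100 lysis control.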

A further data set relates to male ICR mice. As to the kind of experiment: Tolerability in a mouse model (Maximum Tolerated Dose assay). Format: in vivo. Conditions: groups of 3. In short, it runs like this:
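Groups of 3 male ICR mice weighing 23±3 g received two subcutaneous doses, 12 h apart, of 30 or 40 mg/kg in saline adjusted to pH 6.5-7.6. Observation for 30 min after each dose covered autonomic effects and acute toxicity, including death.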

Where [9] appears, read: 2 × 40 mg/kg s.c. at a 12-hr interval.

≈ marks a conversion by molar mass, not a printed value. Where a SMILES comes first, the peptide text is derived from it. Bridges are numbered along the chain shown (N, C = ends). Roman numbers before positions name the chains, in order. [ ]: non-standard residue; d: D form. Thr(ol) = C[C@@H](O)[C@H](N)CO; Tle = CC(C)(C)[C@H](N)C(=O)O; Hiv = CC(C)[C@H](O)C(=O)O; dDab = NCC[C@@H](N)C(=O)O; Orn = NCCC[C@H](N)C(=O)O; Dab = NCC[C@H](N)C(=O)O; Abu = CC[C@H](N)C(=O)O; Dap = NC[C@H](N)C(=O)O Bounds are passed on as bounds.

`CC[C@@H]1NC(=O)[C@@H](CC(C)C)NC(=O)[C@H](CCN)NC(=O)[C@@H](NC(=O)[C@H](CN)NC(=O)[C@@H](NC(=O)[C@H](CCN)NC(=O)CC[C@@H]2NC(=O)[C@H](CCN)NC(=O)[C@H](Cc3ccc(O)cc3)NC(=O)[C@@H](NC(=O)[C@@H](O)C(C)C)CSSC[C@@H](C(=O)N[C@@H](CO)C(=O)N[C@H](CO)C(N)=O)NC(=O)[C@H]([C@@H](C)CC)NC(=O)[C@H](CO)NC(=O)[C@H](Cc3c[nH]c4ccccc34)NC(=O)CNC(=O)[C@@H](CCN)NC2=O)[C@@H](C)O)CCNC(=O)[C@H]([C@@H](C)O)NC(=O)[C@H](CCN)NC(=O)[C@H](CCN)NC1=O` [Ex. 376] (I: H-[Hiv]CY[Dab]E[dDab]GWSICS[dS]-NH2 / II: [Dab]T[Dap][Dab][Dab][dL][Abu][Dab][Dab]T; disulfide I:2-I:11; amide I:5-II:N; lactam II:4-II:C): the minimal inhibitory concentration (MIC) was found to be 0.25 µg/mL (≈ 0.104 µM) in data set [1], 0.0625 µg/mL (≈ 0.026 µM) in data set [3], 0.25 µg/mL (≈ 0.104 µM) in the data set on Escherichia coli 926415 and 0.5 µg/mL (≈ 0.208 µM) in data set [5]. Also, the “Acinetobacter baumannii DSM 30008 MIC” value in [2] is 0.0625 µg/mL. In addition, the “Escherichia coli ATCC 25922 MIC” value in data set [4] was found to be 0.0625 µg/mL. The “Klebsiella pneumoniae SSI #3010 MIC” value in data set [6] stood at 0.0625 µg/mL. Besides, the “Pseudomonas aeruginosa ATCC 27853 MIC” value in [7] is 0.125 µg/mL. Further, the “Hemolysis at 200 μg/mL” value in data set [8] is reported as below 1%. Further, in the data set with male ICR mice (setting [9]), the Mortality and dose is reported as 0/3 died at 2 × 40 mg/kg.

Regarding `CC(=O)N[C@H](C(=O)N[C@H]1CSSC[C@@H](C(=O)N[C@@H](CO)C(N)=O)NC(=O)[C@H](C(C)C)NC(=O)[C@H](CO)NC(=O)[C@H](Cc2c[nH]c3ccccc23)NC(=O)[C@H](CCN)NC(=O)CNC(=O)[C@H](CCC(=O)N[C@@H](CCN)C(=O)N[C@H](C(=O)N[C@@H](CN)C(=O)N[C@H]2CCNC(=O)[C@H]([C@@H](C)O)NC(=O)[C@H](CCN)NC(=O)[C@H](CCN)NC(=O)[C@H](CC(C)C)NC(=O)[C@@H](CC(C)C)NC(=O)[C@H](CCN)NC2=O)[C@@H](C)O)NC(=O)[C@H](CCN)NC(=O)[C@H](Cc2ccc(O)cc2)NC1=O)C(C)C` [Ex. 345] (I: Ac-VCY[Dab]EG[Dab]WSVCS-NH2 / II: [Dab]T[Dap][Dab][Dab][dL]L[Dab][Dab]T; disulfide I:2-I:11; amide I:5-II:N; lactam II:4-II:C), the MIC in data set [1] is 0.125 µg/mL (≈ 0.0528 µM); in data set [3] it was 0.125 µg/mL (≈ 0.0528 µM); against Escherichia coli 926415 it was 0.125 µg/mL (≈ 0.0528 µM); in [5], 0.25 µg/mL (≈ 0.106 µM). Besides, the “Acinetobacter baumannii DSM 30008 MIC” value in data set [2] came to 0.0625 µg/mL. In addition, the “Escherichia coli ATCC 25922 MIC” value in data set [4] was determined as 0.0625 µg/mL. Also, in data set [6], the “Klebsiella pneumoniae SSI #3010 MIC” value came out at 0.0625 µg/mL. Further, the “Pseudomonas aeruginosa ATCC 27853 MIC” value in data set [7] came out at 0.125 µg/mL. The “Hemolysis at 200 μg/mL” value in data set [8] is listed as below 1%. Moreover, the Mortality and dose in the data set with male ICR mice (setting [9]) is 0/3 died at 2 × 40 mg/kg.

With `CC(=O)N[C@H](C(=O)N[C@H]1CSSC[C@@H](C(=O)N[C@@H](CO)C(N)=O)NC(=O)[C@H](C(C)C)NC(=O)[C@H](CO)NC(=O)[C@H](Cc2c[nH]c3ccccc23)NC(=O)[C@H](CCC(=O)N[C@@H](CCN)C(=O)N[C@H](C(=O)N[C@@H](CN)C(=O)N[C@H]2CCNC(=O)[C@H]([C@@H](C)O)NC(=O)[C@H](CCN)NC(=O)[C@H](CCN)NC(=O)[C@H](CC(C)C)NC(=O)[C@@H](CC(C)C)NC(=O)[C@H](CCN)NC2=O)[C@@H](C)O)NC(=O)[C@@H](CCN)NC(=O)[C@H](CCCN)NC(=O)[C@H](CCN)NC(=O)[C@H](Cc2ccc(O)cc2)NC1=O)C(C)C` [Ex. 359] (I: Ac-VCY[Dab][Orn][dDab]EWSVCS-NH2 / II: [Dab]T[Dap][Dab][Dab][dL]L[Dab][Dab]T; disulfide I:2-I:11; amide I:7-II:N; lactam II:4-II:C), the MIC in [1] was 0.125 µg/mL (≈ 0.0515 µM); in [3] it was 0.125 µg/mL (≈ 0.0515 µM); in the data set with Escherichia coli 926415 it was 0.25 µg/mL (≈ 0.103 µM); in [5], 0.5 µg/mL (≈ 0.206 µM). Besides, in data set [2], the “Acinetobacter baumannii DSM 30008 MIC” value came to 0.0625 µg/mL. Besides, in data set [4], the “Escherichia coli ATCC 25922 MIC” value stood at 0.0625 µg/mL. For the same molecule, the “Klebsiella pneumoniae SSI #3010 MIC” value in data set [6] was determined as 0.125 µg/mL. Besides, the “Pseudomonas aeruginosa ATCC 27853 MIC” value in data set [7] is 0.125 µg/mL. Besides, in data set [8], the “Hemolysis at 200 μg/mL” value is listed as 1%. The Mortality and dose in the data set with male ICR mice (setting [9]) is listed as 0/3 died at 2 × 40 mg/kg.

With `CC(C)C[C@@H]1NC(=O)[C@@H](CC(C)C)NC(=O)[C@H](CCN)NC(=O)[C@@H](NC(=O)[C@H](CCN)NC(=O)[C@@H](NC(=O)[C@H](CCN)NC(=O)CC[C@@H]2NC(=O)[C@H](CN)NC(=O)[C@H](Cc3ccc(O)cc3)NC(=O)[C@@H](NC(=O)[C@@H](O)C(C)C)CSSC[C@@H](C(=O)N[C@H](CO)[C@@H](C)O)NC(=O)[C@H](C(C)(C)C)NC(=O)[C@H](CO)NC(=O)[C@H](Cc3c[nH]c4ccccc34)NC(=O)[C@H]([C@@H](C)O)NC(=O)[C@@H](CCN)NC2=O)[C@@H](C)O)CCNC(=O)[C@H]([C@@H](C)O)NC(=O)[C@H](CCN)NC(=O)[C@H](CCN)NC1=O` [Ex. 58] (I: H-[Hiv]CY[Dap]E[dDab]TWS[Tle]C[Thr(ol)] / II: [Dab]T[Dab][Dab][Dab][dL]L[Dab][Dab]T; disulfide I:2-I:11; amide I:5-II:N; lactam II:4-II:C), the MIC was 0.0625 µg/mL (≈ 0.0262 µM) in data set [1]; 0.0625 µg/mL (≈ 0.0262 µM) in data set [2]; 0.125 µg/mL (≈ 0.0524 µM) in data set [3]; 0.125 µg/mL (≈ 0.0524 µM) against Escherichia coli 926415; 0.0625 µg/mL (≈ 0.0262 µM) in data set [4]; 0.25 µg/mL (≈ 0.105 µM) in data set [5]. Moreover, the values for the MIC in data set [6] and in data set [7] were 0.125 µg/mL (≈ 0.0524 µM) and 0.25 µg/mL (≈ 0.105 µM), respectively. Further, the “Hemolysis at 200 μg/mL” value in [8] is reported as 1%. Also, the Mortality and dose in the data set on male ICR mice (2 × 30 mg/kg s.c. at a 12-hr interval) was 0/3 died at 2 × 30 mg/kg.

With `CC(=O)N[C@H](C(=O)N[C@H]1CSSC[C@@H](C(=O)N[C@@H](CO)C(N)=O)NC(=O)[C@H](C(C)C)NC(=O)[C@H](CO)NC(=O)[C@H](Cc2c[nH]c3ccccc23)NC(=O)[C@H](CO)NC(=O)[C@@H](CCN)NC(=O)[C@H](CCC(=O)N[C@@H](CCN)C(=O)N[C@H](C(=O)N[C@@H](CN)C(=O)N[C@H]2CCNC(=O)[C@H]([C@@H](C)O)NC(=O)[C@H](CCN)NC(=O)[C@H](CCN)NC(=O)[C@H]([C@@H](C)O)NC(=O)[C@@H](CC(C)C)NC(=O)[C@H](CCN)NC2=O)[C@@H](C)O)NC(=O)[C@H](CCN)NC(=O)[C@H](Cc2ccc(O)cc2)NC1=O)C(C)C` [Ex. 331] (I: Ac-VCY[Dab]E[dDab]SWSVCS-NH2 / II: [Dab]T[Dap][Dab][Dab][dL]T[Dab][Dab]T; disulfide I:2-I:11; amide I:5-II:N; lactam II:4-II:C), the MIC is 0.25 µg/mL (≈ 0.105 µM) in data set [1], 0.25 µg/mL (≈ 0.105 µM) in data set [3], 0.5 µg/mL (≈ 0.209 µM) against Escherichia coli 926415 and 0.5 µg/mL (≈ 0.209 µM) in data set [5]. For the same molecule, in [2], the “Acinetobacter baumannii DSM 30008 MIC” value came to 0.125 µg/mL. In addition, in data set [4], the “Escherichia coli ATCC 25922 MIC” value turned out to be 0.0625 µg/mL. Also, in [6], the “Klebsiella pneumoniae SSI #3010 MIC” value was 0.0625 µg/mL. Also, in data set [7], the “Pseudomonas aeruginosa ATCC 27853 MIC” value was determined as 0.125 µg/mL. Also, the “Hemolysis at 200 μg/mL” value in [8] is given as below 1%. In the data set with male ICR mice (setting [9]), the Mortality and dose is 0/3 died at 2 × 40 mg/kg.

Broadly, the MIC is the lowest concentration that inhibits growth of the organism. Read a low MIC as greater potency.

The values are drawn from patent US11629171B2, “Beta-hairpin peptidomimetics” (POLYPHOR AG, priority 2017, dated 2023).
